This passage reports TGI and GI50 results from PubChem BioAssay (NCI).

Structures are written as SMILES.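 Briefly, cells in 96-well plates were exposed to five compound concentrations for 48 h, and endpoints were estimated by linear interpolation. At the GI50, growth is halved. Definition used: TGI = concentration required for complete inhibition of growth.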 Some results are limits rather than exact numbers.

What all share (assay): NCI anticancer screen, dose series, 48 h
Assay [1] has as its system HS 578T breast.
Assay [2] deals with COLO 205 colon.
Assay [3] concerns MDA-MB-231 breast.
Assay [4] concerns DU-145 prostate.
The subject of assay [5] is KM12 colon.
Assay [6] concerns SN12C renal.
The test system of assay [7] is LOX IMVI melanoma.
In assay [8] the test system is SNB-75 CNS.

With `CC(C)(C)OC(=O)/C=C/[C@@H](CCC(=O)/C=C/[C@H](/C=C\CCCC(=O)O)NC1(c2ccccc2)c2ccccc2-c2ccccc21)O[Si](C)(C)C(C)(C)C`, the TGI in assay [1] was determined as 77.9 µM; in assay [2] it was 59 µM; in assay [3], 28.4 µM; in assay [4] it was 32.6 µM; in assay [5] it was 43.5 µM; in assay [6], 32.4 µM. Besides, in assay [7], the TGI is 27.6 µM.

In the case of `CN(C)CCNc1nc2c(c(=O)n(C)c(=O)n2C)n1C`, the TGI in assay [1], in assay [2], in assay [3], in assay [4], in assay [5] and in assay [6] was over 100 µM in each case. This compound also returned a TGI in assay [7] of over 100 µM.

Regarding `COc1ccc(-c2cc(-c3ccncc3)nc(N)c2-c2ccc(F)cc2)cc1`, the TGI is over 100 µM in assay [1]; 97.3 µM in assay [2]; over 100 µM in assay [3]; over 100 µM in assay [8]; over 100 µM in assay [5]; over 100 µM in assay [7].

Regarding `O=C(O)COc1cccc2ccccc(=O)c12`, the TGI in assay [1], in assay [2], in assay [3], in assay [4], in assay [5] and in assay [6] was over 100 µM each time. This compound also had a TGI in assay [7] of over 100 µM.

For the compound `COc1cc(/C=C2\CCCC3=C2N=C2SC=NN2C3c2cc(OC)c(OC)c(OC)c2)cc(OC)c1OC` (centres undefined), the GI50 in assay [1] was 4.85 µM; in assay [3], 4.95 µM; in assay [4], 3.97 µM; in assay [8], 7.52 µM; in assay [6], 2.39 µM. Also, the TGI in assay [1] was over 100 µM; in assay [3], over 100 µM; in assay [4], over 100 µM; in assay [8], over 100 µM; in assay [6], 7.11 µM.

In the case of `CC(C)N=C(NC#N)NS(=O)(=O)c1cnccc1NC1CCCCCCC1`, the TGI in assay [1], in assay [2], in assay [3], in assay [4], in assay [8] and in assay [5] was over 100 µM throughout. In assay [6], the TGI was over 100 µM.

Regarding `NC(=O)NC(=O)c1cccc(C(=O)NC(N)=O)n1`, the TGI in assay [3], in assay [4], in assay [5], in assay [6] and in assay [7] was over 100 µM each time.

For `COc1cc(CNC(=O)CCCCCCCCCCSC#N)ccc1O`, the TGI is 40.9 µM in assay [1]; 94.5 µM in assay [2]; over 100 µM in assay [3]; 34.3 µM in assay [4]; 29.3 µM in assay [8]; 19.3 µM in assay [5]. In assay [7], this compound yielded a TGI of 33 µM.

As to `Cc1cc(NS(=O)(=O)c2ccc(N=Nc3c(Nc4ccccc4)nn(-c4ccc(S(=O)(=O)Nc5ccncn5)cc4)c3C)cc2)no1`, the TGI in assay [2], in assay [3], in assay [4], in assay [8], in assay [5] and in assay [6] was over 100 µM in each case. Also, the TGI in assay [7] is over 100 µM.

Take `FC1(F)SC2CCCCCCCCCCC2C1(F)F` (centres undefined): the TGI in assay [1] was over 100 µM; in assay [2] it was 34.7 µM; in assay [3] it was over 100 µM; in assay [4] it was over 100 µM; in assay [8], over 100 µM; in assay [7], 31.6 µM.

For the compound `COC(=O)c1cc(OCc2cc(OCc3ccc(Br)cc3)cc(OCc3ccc(Br)cc3)c2)cc(OCc2cc(OCc3ccc(Br)cc3)cc(OCc3ccc(Br)cc3)c2)c1`, the TGI in assay [2], in assay [3], in assay [4], in assay [8], in assay [5] and in assay [6] was over 100 µM throughout.

On to `CCN(CC)C(=O)N1CN(c2ccccc2)C2(CCN(CCCC3(c4ccc(F)cc4)OCCO3)CC2)C1=O`, for which the TGI in assay [1] was found to be 37.4 µM; in assay [2] it was 15.2 µM; in assay [4], 38.3 µM; in assay [8], 45.3 µM; in assay [5], 31.1 µM; in assay [6], 32.8 µM. The TGI in assay [7] came out at 26.2 µM.

For `COc1ccccc1N1C(=O)/C(=C\c2ccccc2)SC1c1cc(OC)c(OC)c(OC)c1` (centres undefined), the TGI in assay [1] was over 100 µM; in assay [2] it was over 100 µM; in assay [3], 71.3 µM; in assay [5], over 100 µM; in assay [6], 87.9 µM; in assay [7] it was 50.3 µM.

`O=c1ccc2c(Cl)sc(Cl)c2[nH]1`: the TGI in assay [1], in assay [3], in assay [4], in assay [8], in assay [5] and in assay [6] was over 100 µM throughout. The compound further returned a TGI in assay [7] of over 100 µM.

Consider `COC(=O)C1=C(C(=O)OC)C2CCC1CC2=O` (centres undefined), for which the TGI in assay [2], in assay [3], in assay [4], in assay [8], in assay [5] and in assay [6] was over 100 µM throughout. Further, in assay [7], the TGI was over 100 µM.

Consider `NCCCCNCCCNC(=O)c1csc(-c2nc(CCN)sc2Cl)n1`, for which the TGI in assay [1], in assay [2], in assay [4], in assay [8], in assay [5] and in assay [6] was over 100 µM in each case.

Regarding `COc1ccc(C2=Nn3c(C)nnc3S/C2=C\c2ccc(-c3ccc([N+](=O)[O-])cc3)o2)cc1`, the TGI is over 100 µM in assay [1]; over 100 µM in assay [3]; 27.3 µM in assay [4]; 40.1 µM in assay [5]; 33.6 µM in assay [6]; 30.3 µM in assay [7].

Take `COC(=O)Cc1c(-c2c(CC(=O)OC)c3ccccc3n2C2OC(COC3OC(COC(C)=O)C(OC(C)=O)C(OC(C)=O)C3OC(C)=O)C(O)C(O)C2O)[nH]c2ccccc12` (centres undefined): the TGI in assay [2], in assay [3], in assay [4], in assay [6] and in assay [7] was over 100 µM in each case.
